# Assays:
# Assay type in all cases: binding
# NPFFR2 = molecular target: T1, NPFFR2 (Homo sapiens, UniProt Q9Y5X5); assay: NanoBRET screen HiBiT-NPFFR2 in HEK293
# T1 construct: purchased Promega (in-house HiBiT-GPCR construct library, NanoBRET)
# Procedure: (§1) Each tracer candidate was screened across the entire library of HiBiT-GPCR constructs using NanoBRET as the detection modality. As depicted in Figure 4A, the specificity of interactions was evaluated through decrease in BRET due to competitive displacement of a bound tracer by excess parental compound. Each tracer was analyzed for binding to each HiBiT-GPCR fusion in the absence and in the presence of competing parental compound. Briefly, HEK293 cells were transfected with HiBiT-GPCR constructs diluted into promoterless DNA to reduce expression and maximize translocation to the cell surface. Each tracer candidate was then screened at concentrations of 1 μM and 0.1 μM across cells expressing these fusions. Cells were treated for 1.5 h with tracer either alone or in the presence of 20 μM competing parental compound (i.e., control). BRET was measured upon addition of purified LgBiT and subsequent complementation with HiBiT genetically fused to a GPCR. The specificity of interactions was assessed through a decrease in BRET signal due to competitive displacement of the bound tracer. To further gauge the robustness of these interactions, the fold response over the control (i.e., BRETtracer/BRETcontrol) was calculated. We chose a 1.5-fold response, which translates to ≥7-fold signal over noise as the minimal threshold required to score an interaction as positive. […]. Below we highlight the screening results obtained for our exemplary fluorescent tracers based on Clozapine, Amitriptyline and AZD1283.
# (§2) HiBiT-GPCR DNA constructs were diluted in 10 mM Tris pH 8 to a final concentration of 0.01 μg/μL, arrayed in 96-well plates and stored at −20 °C. For transfection, HEK293 cells were suspended in Opti-MEM (without phenol red) supplemented with 2% fetal bovine serum (Seradigm) and 100 units/mL penicillin–streptomycin (Gibco) at a final concentration of 220,000 cells/mL and dispensed into white 96-well plates at 90 μL/well. Subsequent transfections and screens were carried using an Agilent Bravo Automated Liquid Handling Platform. First, the 96-well HiBiT DNA arrays were diluted 25-fold in Opti-MEM (without serum or phenol red) to a final concentration of 0.0004 μg/μL and 20 μL of the diluted DNAs were transferred into new 96-well plates. Next, promoterless carrier DNA (1 μg/μL) was diluted 25-fold (0.04 μg/μL) and then dispensed into the diluted arrays at 20 μL/well. Following brief mixing, Viafect transfection reagent (Promega) diluted 16-fold into Opti-MEM was dispensed into the plates at 40 μL/well. After mixing by pipetting, plates were incubated for 10 min on the pipetting station deck. The DNA-transfection reagent complexes were then added to plates containing cells. To facilitate the screen, 10 μL of DNA-transfection reagent complexes were added in duplicates to the top 4 and bottom 4 rows, resulting in two identical 48-well arrays per plate. Plates with transfected cells were incubated for 18–20 h at 37 °C/5% CO2. A screen of each tracer across the entire library using two different concentrations requires duplicate plates of transfected cells. Depending on the number of tracers being screened, transfections can be scaled up using the same ratios. The next day, for each tracer, four 20× screening solutions in tracer dilution buffer (Promega) were prepared: two duplicates at final concentration of 20 μM and two duplicates at a final concentration of 2 μM. A competing unmodified compound was added to one of each duplicate at a final concentration of 400 μM. The four resulting solutions were diluted 4-fold in Opti-MEM without serum or phenol red to generate 5× solutions (5 µM and 0.5 µM tracer +/− 100 μM competing compound). To screen the library, a BioTek MultiFlo FX liquid dispenser was used to dispense 22.5 µL of tracer solution to the top 4 rows and 22.5 µL tracer + competing compound solution to the 4 bottom rows. Plates were briefly mixed on an orbital shaker and incubated for 1.5 h at room temperature. […]
# MLNR = molecular target: T2, MLNR (Homo sapiens, UniProt O43193); assay: NanoBRET screen HiBiT-MLNR in HEK293
# T2 construct: purchased Promega (in-house HiBiT-GPCR construct library, NanoBRET)
# T2 sequence (O43193 whole entry): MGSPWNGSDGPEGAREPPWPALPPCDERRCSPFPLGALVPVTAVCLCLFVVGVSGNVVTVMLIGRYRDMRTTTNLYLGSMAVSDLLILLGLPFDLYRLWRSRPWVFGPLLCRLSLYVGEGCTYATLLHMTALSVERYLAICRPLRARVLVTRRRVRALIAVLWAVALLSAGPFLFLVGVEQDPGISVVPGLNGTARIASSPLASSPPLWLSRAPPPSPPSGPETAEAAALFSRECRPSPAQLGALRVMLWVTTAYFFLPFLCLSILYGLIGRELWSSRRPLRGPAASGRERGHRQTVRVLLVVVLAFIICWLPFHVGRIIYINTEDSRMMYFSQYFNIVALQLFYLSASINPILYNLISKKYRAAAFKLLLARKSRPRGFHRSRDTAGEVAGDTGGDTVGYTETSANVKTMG
# Procedure: as §1, §2
# DRD5 = molecular target: T3, DRD5 (Homo sapiens, UniProt P21918); assay: NanoBRET screen HiBiT-DRD5 in HEK293
# T3 construct: purchased Promega (in-house HiBiT-GPCR construct library, NanoBRET)
# T3 sequence (P21918 whole entry): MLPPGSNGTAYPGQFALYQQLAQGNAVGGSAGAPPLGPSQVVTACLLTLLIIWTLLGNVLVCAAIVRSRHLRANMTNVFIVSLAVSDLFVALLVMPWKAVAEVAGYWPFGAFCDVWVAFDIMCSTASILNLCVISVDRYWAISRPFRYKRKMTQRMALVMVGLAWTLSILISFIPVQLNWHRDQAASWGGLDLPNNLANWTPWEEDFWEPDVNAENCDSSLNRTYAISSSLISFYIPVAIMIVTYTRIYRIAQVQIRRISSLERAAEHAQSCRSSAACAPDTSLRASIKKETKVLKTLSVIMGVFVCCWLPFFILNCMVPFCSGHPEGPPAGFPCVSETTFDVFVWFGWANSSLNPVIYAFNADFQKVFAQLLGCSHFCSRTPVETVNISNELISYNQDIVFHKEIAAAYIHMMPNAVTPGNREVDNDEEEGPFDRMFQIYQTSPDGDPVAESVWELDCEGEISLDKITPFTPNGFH
# Procedure: as §1, §2
# GRM3 = molecular target: T4, GRM3 (Homo sapiens, UniProt Q14832); assay: NanoBRET screen HiBiT-GRM3 in HEK293
# T4 construct: purchased Promega (in-house HiBiT-GPCR construct library, NanoBRET)
# T4 sequence (Q14832 23-879): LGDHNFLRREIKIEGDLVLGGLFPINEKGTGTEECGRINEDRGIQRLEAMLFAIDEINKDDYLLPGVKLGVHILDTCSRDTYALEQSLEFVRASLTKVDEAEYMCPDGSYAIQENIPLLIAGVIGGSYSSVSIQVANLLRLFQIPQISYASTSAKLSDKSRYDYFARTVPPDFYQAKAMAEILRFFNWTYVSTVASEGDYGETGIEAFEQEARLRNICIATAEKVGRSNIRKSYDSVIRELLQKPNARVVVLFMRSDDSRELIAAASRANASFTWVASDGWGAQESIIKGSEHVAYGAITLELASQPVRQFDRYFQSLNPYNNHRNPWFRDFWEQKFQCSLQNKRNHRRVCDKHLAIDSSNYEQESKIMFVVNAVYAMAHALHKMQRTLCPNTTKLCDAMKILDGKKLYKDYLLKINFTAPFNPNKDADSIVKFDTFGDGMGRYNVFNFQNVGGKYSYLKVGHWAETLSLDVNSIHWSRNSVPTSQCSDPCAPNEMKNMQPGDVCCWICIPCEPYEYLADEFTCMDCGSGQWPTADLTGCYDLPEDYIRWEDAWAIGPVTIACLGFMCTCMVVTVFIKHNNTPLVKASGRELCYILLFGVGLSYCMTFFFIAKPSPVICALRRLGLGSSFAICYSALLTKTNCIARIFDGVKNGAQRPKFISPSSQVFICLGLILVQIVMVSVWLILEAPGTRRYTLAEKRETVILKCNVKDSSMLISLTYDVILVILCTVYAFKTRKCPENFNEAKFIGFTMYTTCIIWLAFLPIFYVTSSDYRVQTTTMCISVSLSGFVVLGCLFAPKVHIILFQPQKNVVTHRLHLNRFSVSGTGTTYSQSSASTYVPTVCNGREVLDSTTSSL
# Procedure: as §1, §2
# CCR6 = molecular target: T5, CCR6 (Homo sapiens, UniProt P51684); assay: NanoBRET screen HiBiT-CCR6 in HEK293
# T5 construct: purchased Promega (in-house HiBiT-GPCR construct library, NanoBRET)
# T5 sequence (P51684 1-374): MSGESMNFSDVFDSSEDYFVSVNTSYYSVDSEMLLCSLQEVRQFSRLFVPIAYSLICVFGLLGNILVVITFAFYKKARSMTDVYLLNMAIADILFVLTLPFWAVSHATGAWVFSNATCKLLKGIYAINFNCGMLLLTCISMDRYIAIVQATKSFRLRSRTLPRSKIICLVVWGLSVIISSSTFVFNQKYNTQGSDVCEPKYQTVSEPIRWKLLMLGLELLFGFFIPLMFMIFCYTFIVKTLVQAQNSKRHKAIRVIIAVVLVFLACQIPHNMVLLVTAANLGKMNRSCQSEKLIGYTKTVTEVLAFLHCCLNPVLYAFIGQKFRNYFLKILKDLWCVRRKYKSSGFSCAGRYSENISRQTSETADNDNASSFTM
# Procedure: as §1, §2
# NPBWR2 = molecular target: T6, NPBWR2 (Homo sapiens, UniProt P48146); assay: NanoBRET screen HiBiT-NPBWR2 in HEK293
# T6 construct: purchased Promega (in-house HiBiT-GPCR construct library, NanoBRET)
# T6 sequence (P48146 whole entry): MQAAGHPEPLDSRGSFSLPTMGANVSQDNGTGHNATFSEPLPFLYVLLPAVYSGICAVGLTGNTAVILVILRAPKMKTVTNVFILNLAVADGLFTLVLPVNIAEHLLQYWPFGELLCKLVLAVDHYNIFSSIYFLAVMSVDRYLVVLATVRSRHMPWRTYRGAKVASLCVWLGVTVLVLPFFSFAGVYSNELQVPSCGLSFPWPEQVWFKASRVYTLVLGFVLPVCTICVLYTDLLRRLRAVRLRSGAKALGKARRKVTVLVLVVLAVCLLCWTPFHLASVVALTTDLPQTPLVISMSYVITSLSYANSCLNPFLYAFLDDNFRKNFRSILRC
# Procedure: as §1, §2
# ADRA2B = molecular target: T7, ADRA2B (Homo sapiens, UniProt P18089); assay: NanoBRET screen HiBiT-ADRA2B in HEK293
# T7 construct: purchased Promega (in-house HiBiT-GPCR construct library, NanoBRET)
# T7 sequence (P18089 1-450): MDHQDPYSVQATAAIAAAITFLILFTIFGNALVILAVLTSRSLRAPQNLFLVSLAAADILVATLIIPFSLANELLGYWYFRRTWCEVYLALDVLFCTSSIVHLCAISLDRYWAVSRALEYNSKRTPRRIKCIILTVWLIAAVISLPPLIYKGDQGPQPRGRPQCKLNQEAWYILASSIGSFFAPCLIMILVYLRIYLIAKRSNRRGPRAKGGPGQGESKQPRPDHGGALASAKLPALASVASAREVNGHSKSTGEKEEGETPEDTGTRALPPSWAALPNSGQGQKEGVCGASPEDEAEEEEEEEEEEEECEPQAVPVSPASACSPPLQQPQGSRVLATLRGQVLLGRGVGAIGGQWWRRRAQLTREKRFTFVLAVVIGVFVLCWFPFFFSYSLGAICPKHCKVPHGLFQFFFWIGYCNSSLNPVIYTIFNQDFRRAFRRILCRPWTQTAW
# T1 sequence (Q9Y5X5 whole entry): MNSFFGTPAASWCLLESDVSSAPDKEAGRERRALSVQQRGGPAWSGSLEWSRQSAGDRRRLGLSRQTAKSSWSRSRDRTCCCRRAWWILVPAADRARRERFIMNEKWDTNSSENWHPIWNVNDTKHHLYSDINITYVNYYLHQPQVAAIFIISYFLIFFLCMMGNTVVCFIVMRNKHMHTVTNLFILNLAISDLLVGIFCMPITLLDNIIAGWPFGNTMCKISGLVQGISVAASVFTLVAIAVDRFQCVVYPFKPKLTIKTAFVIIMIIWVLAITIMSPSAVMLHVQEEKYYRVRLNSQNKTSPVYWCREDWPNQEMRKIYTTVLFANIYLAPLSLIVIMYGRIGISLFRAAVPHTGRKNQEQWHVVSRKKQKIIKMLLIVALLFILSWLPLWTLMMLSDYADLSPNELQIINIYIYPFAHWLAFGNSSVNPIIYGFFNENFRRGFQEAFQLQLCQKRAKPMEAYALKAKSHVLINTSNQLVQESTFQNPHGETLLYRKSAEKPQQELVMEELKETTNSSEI
Structure (SMILES),"NanoBRET Fold Response (NPFFR2; NPFFR2, tracer 0.1μM)","NanoBRET Fold Response (NPFFR2; NPFFR2, tracer 1μM)","NanoBRET Fold Response (MLNR; MLNR, tracer 0.1μM)","NanoBRET Fold Response (MLNR; MLNR, tracer 1μM)","NanoBRET Fold Response (DRD5; DRD5, tracer 0.1μM)","NanoBRET Fold Response (DRD5; DRD5, tracer 1μM)","NanoBRET Fold Response (GRM3; GRM3, tracer 0.1μM)","NanoBRET Fold Response (GRM3; GRM3, tracer 1μM)","NanoBRET Fold Response (CCR6; CCR6, tracer 0.1μM)","NanoBRET Fold Response (CCR6; CCR6, tracer 1μM)","NanoBRET Fold Response (NPBWR2; NPBWR2, tracer 0.1μM)","NanoBRET Fold Response (NPBWR2; NPBWR2, tracer 1μM)","NanoBRET Fold Response (ADRA2B; ADRA2B, tracer 0.1μM)","NanoBRET Fold Response (ADRA2B; ADRA2B, tracer 1μM)",also measured
CCCn1c(=O)c2[nH]c(-c3ccc(OCC(=O)NCCNC(=O)CCOCCNC(=O)c4ccc(CNC(=O)CCc5ccc6n5[B-](F)(F)[N+]5=C(c7ccc[nH]7)C=CC5=C6)cc4)cc3)nc2n(CCC)c1=O [XAC-3-NB590],1.02,1.02,0.99,0.91,0.99,1.00,1.02,1.10,1.00,1.26,1.01,0.99,0.91,0.95,–
CC(C)N(CC[C@H](c1ccccc1)c1cc(CCNC(=O)c2ccc(CNC(=O)CCc3ccc4n3[B-](F)(F)[N+]3=C(c5ccc[nH]5)C=CC3=C4)cc2)ccc1O)C(C)C [Tolterodine-BZ-NB590],1.00,1.02,1.06,1.05,1.02,1.18,0.99,1.06,1.05,1.03,0.96,1.06,1.04,1.13,–
N#CN/C(=N\CCNC(=O)c1ccc(N)cc1)NCCCOc1cccc(CN2CCCCC2)c1 [Aminopotentidine (unmodified)],–,–,–,–,–,–,–,–,–,–,–,–,–,–,"NanoBRET Fold Response (DRD5; DRD5, other tracers/Aminopotentidine (unmodified), 0.1μM): 1.08; NanoBRET Fold Response (DRD5; DRD5, other tracers/Aminopotentidine (unmodified), 1μM): 1.09; NanoBRET Fold Response (ADRA2B; ADRA2B, other tracers/Aminopotentidine (unmodified), 0.1μM): 1.49; NanoBRET Fold Response (ADRA2B; ADRA2B, other tracers/Aminopotentidine (unmodified), 1μM): 1.60"
COc1ccc2[nH]c(-c3ccc(CNC(=O)CCOCCOCCOCCOCCNC(=O)CCc4ccc5n4[B-](F)(F)[N+]4=C(c6ccc[nH]6)C=CC4=C5)cc3)c(CCNC(C)=O)c2n1 [AzomelatoninICO9-2-NB590],–,–,–,–,–,–,–,–,–,–,–,–,–,–,NanoBRET Fold Response (NPFFR2; 0.1μM tracer): 0.91; NanoBRET Fold Response (NPFFR2; 1μM tracer): 1.06; NanoBRET Fold Response (MLNR; 0.1μM tracer): 0.60; NanoBRET Fold Response (MLNR; 1μM tracer): 0.87; NanoBRET Fold Response (DRD5; 0.1μM tracer): 1.14; NanoBRET Fold Response (DRD5; 1μM tracer): 0.93; NanoBRET Fold Response (GRM3; 0.1μM tracer): 1.03; NanoBRET Fold Response (GRM3; 1μM tracer): 0.85; NanoBRET Fold Response (CCR6; 0.1μM tracer): 0.85; NanoBRET Fold Response (CCR6; 1μM tracer): 1.20; NanoBRET Fold Response (NPBWR2; 0.1μM tracer): 1.08; NanoBRET Fold Response (NPBWR2; 1μM tracer): 0.90; NanoBRET Fold Response (ADRA2B; 0.1μM tracer): 1.35; NanoBRET Fold Response (ADRA2B; 1μM tracer): 1.12
COc1ccccc1N1CCN(CCCCN2C(=O)c3ccc(CNC(=O)CCOCCNC(=O)c4ccc(CNC(=O)CCc5ccc6n5[B-](F)(F)[N+]5=C(c7ccc[nH]7)C=CC5=C6)cc4)cc3C2=O)CC1 [NAN-190-3-NB590],1.02,1.01,1.32,0.66,1.05,1.42,0.98,1.25,1.19,0.93,0.96,0.79,4.24,5.21,–
O=C(CCOCCOCCOCCOCCNC(=O)CCc1ccc2n1[B-](F)(F)[N+]1=C(c3ccc[nH]3)C=CC1=C2)NCCCN1CCN(C2=Nc3ccccc3Oc3ccc(Cl)cc32)CC1 [Loxapine-a-2-NB590],1.05,1.03,1.20,1.16,1.25,2.20,0.99,1.03,1.00,0.97,1.07,0.93,3.38,5.35,–
COc1ccccc1N1CCN(CCCCN2C(=O)c3ccc(CNC(=O)CCOCCOCCOCCOCCNC(=O)CCc4ccc5n4[B-](F)(F)[N+]4=C(c6ccc[nH]6)C=CC4=C5)cc3C2=O)CC1 [NAN-190-2-NB590],0.97,–,0.67,–,1.02,1.21,0.95,–,0.99,1.02,1.00,–,4.00,5.99,–
CC(C)N(CC[C@H](c1ccccc1)c1cc(CCNC(=O)CCOCCOCCOCCOCCNC(=O)CCc2ccc3n2[B-](F)(F)[N+]2=C(c4ccc[nH]4)C=CC2=C3)ccc1O)C(C)C [Tolterodine-2-NB590],0.98,1.06,0.87,1.15,1.01,1.04,0.82,1.09,1.07,1.01,1.41,0.83,0.95,1.04,–

# Source: paper PMC8151276, “An Integrated Approach toward NanoBRET Tracers for Analysis of GPCR Ligand Engagement” (Molecules, 2021)
